Several values for one entry are separate records, joined by “and”; a condition that tells them apart may be missing. Equal values may be shown once.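 The compound was tested at five concentrations on cells cultured in 96-well plates, with a 48-hour exposure period. The concentration for 50% growth inhibition is given as GI50. Definition used: TGI = concentration required for complete inhibition of growth.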

GI50 and TGI data for eight compounds are collected here from PubChem BioAssay (NCI).

Common to all, as to test: growth of human tumour cells (NCI), 48 h
In test [1] the test system is HT29 colon.
In test [2] the test system is NCI-H23 lung.
The test system of test [3] is K-562 leukemia.
Test [4] concerns SNB-19 CNS.
In test [5] the test system is KM12 colon.
The subject of test [6] is SK-MEL-2 melanoma.
For test [7], the system named is MALME-3M melanoma.
The test system of test [8] is COLO 205 colon.
Test [9] deals with A549 NSCLC.
In test [10] the test system is UACC-62 melanoma.

With `NC(=O)c1cc(Cl)ccc1NC(=O)/C=C/c1ccccc1`, the GI50 in [1] was 2.22 µM; in test [2] it was 5.62 µM; in [3], 0.806 µM; in test [4] it was 4.47 µM; in test [5], 2.19 µM; in test [6], 3.95 µM. Further, the GI50 in [7] is 3.18 µM; in [8], 2.16 µM; in test [9], 4.18 µM; in test [10] it was 2.18 µM. In addition, the TGI in [1] was greater than 100 µM; in [2], greater than 100 µM; in test [3], greater than 23.1 µM; in [4], greater than 55.6 µM; in test [5], greater than 100 µM; in test [6], greater than 39.3 µM. For the same compound, the TGI in [7] is greater than 100 µM; in [8] it was greater than 24.1 µM; in [9], greater than 100 µM; in test [10] it was greater than 100 µM.

As for `CN1CCc2nc(N)nc(-c3nc(N)nc4c3CN(C)CC4)c2C1`, the TGI in [1], in test [2], in [3], in test [4], in [5] and in [6] was greater than 100 µM throughout. The TGI in [7], in test [8], in test [9] and in test [10] was greater than 100 µM each time.

Turning to `COc1ccc(CN2CC(C)(C)C2=O)c(OC)c1`, the TGI in test [1], in test [2], in test [3], in test [4], in test [5] and in test [6] was greater than 100 µM each time. For the same compound, the TGI in test [7], in test [8], in test [9] and in test [10] was greater than 100 µM each time.

For the compound `Cc1nnc(NS(=O)(=O)c2ccc(N=Nc3cc(N=Nc4ccc(S(=O)(=O)Nc5nnc(C)s5)cc4)c4c(NC(=O)C(Cl)Cl)cccc4c3OC(=O)C(Cl)Cl)cc2)s1` (tested in a mixture with another compound), the TGI is greater than 100 µM in [1]; 49.5 µM in test [2]; 77.8 µM in [3]; greater than 100 µM in test [4]; greater than 100 µM in [5]; 64.1 µM in [6]. Besides, the TGI is 65.3 µM in test [7], greater than 100 µM in [8], 60.2 µM in test [9] and 89.1 µM in test [10].

For the compound `CC1=CC(=O)C=CC1=O`, the GI50 in test [1] is 16.4 µM and 26.9 µM; in [2], 26.6 µM and 20.5 µM; in test [3], 3 µM and 4.38 µM; in test [4] it was 36.1 µM; in test [5] it was 14.1 µM and 16.5 µM; in [6], 50.7 µM and 23.8 µM. Further, the GI50 was 13.1 µM and 13.7 µM in [7]; 13.4 µM and 12.1 µM in test [8]; 79.4 µM and 24.9 µM in [9]; 28.2 µM and 13.7 µM in test [10]. The TGI was 40.9 µM and 69.6 µM in [1]; 60 µM in test [2]; 89.4 µM in test [4]; 27.7 µM and 32.1 µM in [5]; 66.3 µM in test [6]; 29.7 µM and 27.8 µM in [7]. Moreover, the TGI in [8] is 27.3 µM and 25 µM; in test [9] it was 66.8 µM; in [10], 27.2 µM.

Turning to `CN(C)CCC1(C2=CCCC2)CC/C(=C\c2ccc(Cl)cc2)C1=O` (stereo not drawn), the TGI in test [1] was 8.35 µM; in test [2], 29.3 µM; in test [3] it was greater than 23.2 µM; in test [4] it was 24.1 µM; in [5] it was 23.6 µM; in test [6], 14.2 µM. In addition, the TGI was determined as 15.4 µM in [7], 28.3 µM in [8], 26.9 µM in [9] and 9.05 µM in test [10].

With `O=C(O)CNS(=O)(=O)c1ccc(NC(=O)c2ccc([N+](=O)[O-])cc2)cc1`, the TGI in test [1], in test [2], in test [3], in [4], in [5] and in [6] was greater than 100 µM each time. Besides, the TGI in test [7], in test [8], in test [9] and in test [10] was greater than 100 µM in each case.

As for `O=C1/C(=C(/c2ccccc2)N2CCOCC2)Cc2ccccc21`, the GI50 was 1.83 µM in [1]; 2.64 µM in test [2]; 3.42 µM in [3]; 10.6 µM in test [4]; 2.22 µM in test [5]; 2.03 µM in test [6]. Moreover, the GI50 in test [7] is 1.28 µM; in [8] it was 1.34 µM; in [9] it was 2.79 µM; in [10] it was 1.79 µM. Further, the TGI in test [1] is 5.28 µM; in [2], 8.38 µM; in [4] it was 23.8 µM; in [5] it was 5.49 µM; in test [6], 6.34 µM; in test [7], 3.08 µM. The TGI in test [8] turned out to be 2.94 µM; in test [9] it was 8.35 µM; in test [10], 4.24 µM.
